The values that follow come from patent US11312716B2, “9H-pyrrolo-dipyridine derivatives” (UCB Biopharma SRL, priority 2015, dated 2022).

Data set [1] has as its target rat MAO-A enzyme (Rattus norvegicus (Rat), UniProt P21396). The data set is described as follows: Rat MAO-A binding, competition for [3H]Ro 41-1049 in rat cerebral cortex. To be noted: 10 nM [3H]Ro 41-1049. The protocol:
Compound selectivity for Tau protein was assessed as compared to a broad panel of receptors, enzymes and ion channels. Selectivity profiling of 10 μM compounds against a panel of 81 targets (n=1 with data in duplicate) was performed. Compounds affinity for rat MAO-A enzyme was assessed in rat cerebral cortex by competition experiment for 10 nM [^3H]Ro 41-1049 and increasing concentrations of test compounds. Compounds affinity for human MAO-A enzyme (1 μg/assay, Sigma-Aldrich, Diegem, Belgium) was assessed by saturation binding experiment performed as described above with [^3H]compounds.

The conditions of data set [2]: brain homogenate.
Experimental: The Brain free faction was carried out in duplicate at a single concentration of 1 μM after 4 h of equilibrium dialysis.
Male Sprague-Dawley Rat (Harlan, Bresso, Italy) brain homogenate were prepared in PBS, pH 7.4 at 25% w/vy using a Precellys 24-dual tissue homogenizer (BERTIN technologies, Montigny-le-Bretonneux, France).
350 μL PBS pH 7.4 was loaded in the other chamber of the insert. The Red device reusable base counting insert containing insert with both samples and buffer was sealed and incubated during 4 h at 37° C., 300 rpm, on an orbital shaker.
At the end of the incubation, all brain samples were diluted 1:1 with PBS and PBS samples were diluted 1:1 with control brain homogenate. All samples were then diluted 1:3 with an internal standard (dextromethorphan 10 ng/mL in acetonitrile, Sigma, St Louis, United states), mixed and centrifuged 5 min at 3000 rpm at 4° C. Supernatant was diluted 1:2 with 0.1% formic acid in water (Biosolve, Dieuze, France) before analysis by LC/MS/MS. The LC system used was an Agilent 1290 (Agilent, Santa Clara, United states) coupled with a API5000 mass spectrometer (ABSciex, Framingham, United states). The software was analyst 1.5.2. (Agilent, Santa Clara, United states), the analytical column was an Aquity UPLC HSS T3 (30×2.1 mm, 1.8 μm, Waters, Saint-Quentin, France) operated at 40° C. Analysis were performed in the gradient described below. Gradient used for LC MS/MS
The Fu brain (%) was calculated using the following equation Fu brain(%)=(1/(1+((1/((fu homogenate)−1)×D)))×100 Where Fu homogenate=peak area ratio buffer/peak area ratio brain and D=dilution factor of the homogenate.

rat MAO-A enzyme, sequence (P21396 whole entry): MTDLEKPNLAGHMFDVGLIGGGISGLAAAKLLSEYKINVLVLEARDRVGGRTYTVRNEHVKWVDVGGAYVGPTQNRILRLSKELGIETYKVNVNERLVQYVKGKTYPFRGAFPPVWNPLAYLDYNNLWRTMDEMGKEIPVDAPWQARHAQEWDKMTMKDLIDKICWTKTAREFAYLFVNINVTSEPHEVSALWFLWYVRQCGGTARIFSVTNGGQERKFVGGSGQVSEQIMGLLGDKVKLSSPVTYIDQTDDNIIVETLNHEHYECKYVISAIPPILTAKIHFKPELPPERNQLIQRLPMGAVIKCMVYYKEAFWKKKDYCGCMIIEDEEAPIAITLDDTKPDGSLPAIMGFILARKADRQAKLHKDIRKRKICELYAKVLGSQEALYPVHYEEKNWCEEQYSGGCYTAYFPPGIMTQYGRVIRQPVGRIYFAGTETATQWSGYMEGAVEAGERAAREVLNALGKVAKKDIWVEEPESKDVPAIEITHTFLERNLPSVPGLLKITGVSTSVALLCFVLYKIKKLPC

Consider “N-methyl-5-(9H-pyrrolo[2,3-b:4,5-c′]dipyridin-7-yl)picolinamide [Example 60]”, for which the “Rat MAO-A Binding INHIB 10 nM” value in data set [1] (10 nM test compound) was −3%. In addition, the “Rat MAO-A Binding INHIB 100 nM” value in data set [1] (100 nM test compound) is reported as −1%. Also, the “Fu Rat Brain” value in data set [2] was 0.5%.
